Results on twelve compounds are retold here after ChEMBL document CHEMBL1201862, “PubChem BioAssay data set” (2004).

Test systems include Malme-3M; K562; SK-OV-3; COLO 205; DMS-114; NCI-H23; SW-620; A549; OVCAR-8; 786-0; SF-295; HCT-116; M14; ACHN; NCI-H522; HL-60; DMS-273; HCT-15; SR; MDA-MB-435.
Common to all, as to assay: growth of human tumour cells (NCI), 48 h

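48-hour exposure; five concentrations; linearly interpolated endpoints. The concentration for 50% growth inhibition is given as GI50.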 Activity calls are given as the source filed them. Rule as the data show it: active = GI50 up to about 1.1 µM and inactive = higher.

Regarding `Nc1nc2c(ncn2CCCC(c2ccccc2)P(=O)(O)O)c(=O)[nH]1` (stereo not drawn), the GI50 with Malme-3M, with K562, in the assay with SK-OV-3, with COLO 205, in the assay on DMS-114 and in the assay with NCI-H23 was > 100 µM (inactive) each time. Besides, the GI50 with SW-620, with A549, in the assay on OVCAR-8, in the assay on 786-0, in the assay on SF-295 and in the assay with HCT-116 was > 100 µM (inactive) throughout. In addition, the GI50 is > 100 µM (inactive) in the assay on M14; > 100 µM (inactive) with ACHN; > 100 µM (inactive) with NCI-H522; > 100 µM (inactive) with HL-60; > 100 µM (inactive) with DMS-273; over 100 µM in the assay with HCT-15.
Turning to `CCOC(=O)[C@H]1Nc2ccc(O)cc2C2c3ccccc3CC21` (stereo partly drawn), the GI50 was > 100 µM (inactive) with Malme-3M; 52.5 µM (inactive) with K562; > 100 µM (inactive) in the assay with COLO 205; 56.2 µM (inactive) with DMS-114; 53.7 µM (inactive) with NCI-H23; > 100 µM (inactive) with SW-620. Further, the GI50 with A549 is 65.3 µM (inactive); with OVCAR-8, > 100 µM (inactive); in the assay with 786-0, 77.8 µM (inactive); in the assay on SF-295 it was > 10 µM (inactive); in the assay on HCT-116, 68.1 µM (inactive); in the assay on M14 it was 59.7 µM (inactive). In addition, the GI50 with ACHN was 51.4 µM (inactive); in the assay on NCI-H522, 61.7 µM (inactive); in the assay with DMS-273, 59.2 µM (inactive); with HCT-15 it was 72.8 µM.
Regarding `COc1cccc(C2C(C(=O)Nc3cc(=O)n(C)c(=O)n3C)=C(C)NC(C)=C2C(=O)Nc2cc(=O)n(C)c(=O)n2C)c1O`, the GI50 with Malme-3M, in the assay with K562, with SK-OV-3, in the assay with COLO 205, with DMS-114 and in the assay on NCI-H23 was > 100 µM (inactive) each time. The GI50 in the assay on SW-620, in the assay on A549, in the assay with OVCAR-8, in the assay on 786-0, with SF-295 and in the assay on M14 was > 100 µM (inactive) each time. Moreover, the GI50 in the assay with ACHN, in the assay on NCI-H522 and in the assay on HL-60 was > 100 µM (inactive) each time.
Take `CCCC(S(=O)(=O)c1ccccc1)S(=O)(=O)c1ccccc1`: the GI50 in the assay on Malme-3M, in the assay on K562, with SK-OV-3, in the assay with DMS-114, in the assay with NCI-H23 and in the assay on SW-620 was > 100 µM (inactive) each time. Also, the GI50 is > 100 µM (inactive) with A549; > 100 µM (inactive) in the assay with OVCAR-8; > 100 µM (inactive) with 786-0; 83.4 µM (inactive) in the assay with SF-295; > 100 µM (inactive) with HCT-116; > 100 µM (inactive) in the assay on M14. Besides, the GI50 was > 100 µM (inactive) in the assay on ACHN, > 100 µM (inactive) in the assay on HL-60, > 100 µM (inactive) in the assay on DMS-273 and over 100 µM in the assay on HCT-15.
In the case of `C[N+](C)(C)CC(=O)N/N=C(/C=C/c1ccccc1)CC1OC(=O)c2ccccc21` (stereo not drawn), the GI50 is > 100 µM (inactive) in the assay on Malme-3M; > 100 µM (inactive) in the assay on K562; > 100 µM (inactive) with SK-OV-3; > 100 µM (inactive) in the assay on COLO 205; > 100 µM (inactive) in the assay on DMS-114; > 10 µM (inactive) in the assay with NCI-H23. Further, the GI50 is > 100 µM (inactive) in the assay with SW-620; > 100 µM (inactive) in the assay on A549; > 100 µM (inactive) in the assay with OVCAR-8; > 100 µM (inactive) with 786-0; > 10 µM (inactive) with SF-295; > 100 µM (inactive) in the assay on HCT-116. The GI50 is > 100 µM (inactive) with M14; > 100 µM (inactive) in the assay on ACHN; > 100 µM (inactive) in the assay on NCI-H522; > 100 µM (inactive) in the assay with HL-60; > 100 µM (inactive) in the assay with DMS-273; over 100 µM in the assay on HCT-15.
As for `CCOc1ccc(NC(=O)CC2C(=O)Nc3ccccc3[S+]2[O-])cc1` (stereo not drawn), the GI50 with Malme-3M was 98.2 µM (inactive); in the assay on K562 it was > 100 µM (inactive); with SK-OV-3, > 100 µM (inactive); with COLO 205 it was > 100 µM (inactive); in the assay with NCI-H23, > 76.6 µM (inactive); in the assay on SW-620 it was > 76.6 µM (inactive). The GI50 was > 94 µM (inactive) in the assay on A549; 57.9 µM (inactive) with OVCAR-8; 49.1 µM (inactive) with 786-0; > 100 µM (inactive) in the assay on SF-295; > 85.3 µM (inactive) in the assay with HCT-116; 29.5 µM (inactive) in the assay on SR. The GI50 was > 100 µM (inactive) in the assay with M14; > 52.7 µM (inactive) with ACHN; > 100 µM (inactive) in the assay with NCI-H522; > 100 µM (inactive) with HL-60; > 67.1 µM (inactive) in the assay on DMS-273; over 100 µM with HCT-15.
Consider `N#CC1=C(c2ccccc2)OC2(N)OC(c3ccccc3)=C(C#N)C12C#N` (stereo not drawn), for which the GI50 is > 100 µM (inactive) in the assay with Malme-3M; > 100 µM (inactive) in the assay with K562; > 100 µM (inactive) in the assay on SK-OV-3; > 100 µM (inactive) in the assay with COLO 205; 51.5 µM (inactive) with DMS-114; > 100 µM (inactive) in the assay with NCI-H23. For the same compound, the GI50 with SW-620 is > 100 µM (inactive); with A549, > 100 µM (inactive); in the assay on OVCAR-8, 74.8 µM (inactive); with 786-0, > 100 µM (inactive); with SF-295, > 100 µM (inactive); in the assay with M14, > 100 µM (inactive). The GI50 in the assay with ACHN is > 100 µM (inactive); with DMS-273, > 100 µM (inactive); with HCT-15, over 100 µM.
Regarding `O=c1c(-c2ccccc2)c2oc(c1-c1ccccc1)CSCc1cccc(c1)CSC2`, the GI50 in the assay with Malme-3M is 45.5 µM (inactive); in the assay on K562 it was 62.5 µM (inactive); in the assay with SK-OV-3, 25.1 µM (inactive); in the assay on COLO 205, 49.1 µM (inactive); in the assay on DMS-114, 36.9 µM (inactive); in the assay on NCI-H23, > 100 µM (inactive). Moreover, the GI50 with SW-620 was 30.3 µM (inactive); in the assay on A549, 38.5 µM (inactive); with OVCAR-8, 43.1 µM (inactive); with 786-0, 27.5 µM (inactive); with SF-295 it was 51.2 µM (inactive); in the assay on HCT-116 it was 41.2 µM (inactive). Moreover, the GI50 in the assay with M14 is > 100 µM (inactive); in the assay with ACHN it was 18.5 µM (inactive); in the assay with NCI-H522 it was 39.6 µM (inactive); with HL-60, 67.9 µM (inactive); in the assay with DMS-273, 39.5 µM (inactive); with HCT-15, over 100 µM.
Turning to `O=c1[nH]cc(F)c(=O)n1C1OC(CO)C(O)C1O` (stereo not drawn), the GI50 with Malme-3M, in the assay on K562, in the assay with SK-OV-3, with COLO 205, in the assay with DMS-114 and in the assay on NCI-H23 was > 100 µM (inactive) in each case. Moreover, the GI50 in the assay on SW-620, in the assay on A549, with OVCAR-8, in the assay on 786-0, in the assay on SF-295 and in the assay on M14 was > 100 µM (inactive) each time. In addition, the GI50 was > 100 µM (inactive) with ACHN; > 100 µM (inactive) in the assay on NCI-H522; > 100 µM (inactive) in the assay on HL-60; > 100 µM (inactive) with DMS-273; over 100 µM in the assay on HCT-15.
Turning to `NC1=NCC(c2ccccn2)C1c1ccc(F)cc1` (stereo not drawn), the GI50 in the assay on Malme-3M, in the assay on K562, in the assay with SK-OV-3, with COLO 205, in the assay on DMS-114 and with NCI-H23 was > 100 µM (inactive) in each case. Further, the GI50 in the assay on SW-620, in the assay on A549, with OVCAR-8, with 786-0, with SF-295 and in the assay with HCT-116 was > 100 µM (inactive) in each case. Moreover, the GI50 with SR, in the assay with M14, in the assay on ACHN and in the assay with NCI-H522 was > 100 µM (inactive) throughout.
Take `CN(C)Cc1c(O)ccc2c1c1c(n2C)C(=O)c2ccccc2C1=O`: the GI50 in the assay on Malme-3M was 3.72 µM (inactive); in the assay with K562, 3.12 µM (inactive); in the assay on SK-OV-3, 20.2 µM (inactive); with COLO 205 it was 6.76 µM (inactive); with NCI-H23, 5.12 µM (inactive); in the assay with SW-620, 4.72 µM (inactive). The GI50 is 2.51 µM (inactive) in the assay with A549; 5.46 µM (inactive) in the assay on OVCAR-8; 7.21 µM (inactive) with 786-0; 6.17 µM (inactive) in the assay with SF-295; 9.95 µM (inactive) with HCT-116; 1.06 µM (active) in the assay on SR. Also, the GI50 in the assay on M14 is 11.2 µM (inactive); in the assay on ACHN it was 2.31 µM (inactive); in the assay on NCI-H522 it was 3.95 µM (inactive); in the assay on HL-60, 7.38 µM (inactive); in the assay with MDA-MB-435 it was 4.35 µM (inactive); in the assay with HCT-15, 4.49 µM.
For the compound `Cc1cc(C)c2nccc(NCCCN(C)C)c2c1[N+](=O)[O-]`, the GI50 with Malme-3M is 19.3 µM (inactive); in the assay on K562, 31 µM (inactive); with SK-OV-3, > 100 µM (inactive); in the assay on COLO 205, 14.8 µM (inactive); in the assay on NCI-H23, 19.2 µM (inactive); in the assay with SW-620, 26.9 µM (inactive). For the same compound, the GI50 in the assay with A549 is 30.8 µM (inactive); in the assay on OVCAR-8, 37.6 µM (inactive); in the assay with 786-0, 36.2 µM (inactive); in the assay on SF-295, 26.1 µM (inactive); in the assay on HCT-116, 30.9 µM (inactive); with SR, 30.6 µM (inactive). In addition, the GI50 in the assay with M14 is 19.1 µM (inactive); in the assay with ACHN, 34.9 µM (inactive); in the assay with NCI-H522, 14.4 µM (inactive); in the assay on HL-60, 25.9 µM (inactive); with MDA-MB-435 it was 29.6 µM (inactive); in the assay on HCT-15, 15 µM.
